Literature values in US8883204B2, “Tamper resistant co-extruded dosage form containing an active agent and an adverse agent and process of making same” (Purdue Pharma L.P., priority 2003, dated 2014).

Settings: administered orally

Structure (SMILES)	duration of action [h]
C[C@H]1[C@H]2Cc3ccc(O)cc3[C@]1(C)CCN2CC1CC1 [cyclazocine]	~24
O=C1CC[C@@]2(O)[C@H]3Cc4ccc(O)c5c4[C@@]2(CCN3CC2CC2)[C@H]1O5 [naltrexone]	~24
